Reference: patent US10961539B2, “Promoter system inducing expression by 3-hydroxypropionic acid and method for biological production of 3-hydroxypropionic acid using same” (NOROO IC Co., Ltd., priority 2015, dated 2021)
Where two headings read alike, the source gives them in different places.

What was measured:
[1] = system: mmsadh; experiment: RT-PCR relative mRNA level of 3-HP catabolic gene
[2] = system: 3hpdh; experiment: RT-PCR relative mRNA levels of 3-HP degrading genes in various microorganisms (Table 7); type: cell-based, microorganisms shown in Table 1
[3] = system: 3hibdhIV; experiment: RT-PCR relative mRNA level of 3-HP catabolic gene
[4] = cells exposed to 25 mmol/L 3-HP vs no 3-HP, M9 medium, rpoD reference gene
[5] = strain with C4 LysR gene removed

In the case of O=C(O)CCO [3-HP, 3-hydroxypropionic acid], the “fold increase of mmsadh mRNA expression” value [1, 4] is reported as 137 fold, the “mmsadh expression on addition of 3-HP” value [1, 5] is reported as “did not increase the expression” and the “Relative mRNA level 3hpdh + 3-HP” value [2] is reported as 0.19. For the same compound, the “Relative mRNA level 3hpdh + 3-HP” value ([2]; Achromobacter denitrificans, + 3-HP) was 0.24, the “Relative mRNA level 3hpdh + 3-HP” value ([2]; Acidovorax avenae subsp., + 3-HP) was 0.28 and the “Relative mRNA level 3hpdh + 3-HP” value ([2]; Acidovorax sp., + 3-HP) was 0.31. For the same compound, the “Relative mRNA level 3hpdh + 3-HP” value ([2]; Acinetobacter baumannii, + 3-HP) was 0.19, the “Relative mRNA level 3hpdh + 3-HP” value ([2]; Agrobacterium sp., + 3-HP) was 0.27 and the “Relative mRNA level 3hpdh + 3-HP” value ([2]; Alcaligenes faecalis, + 3-HP) was 0.26. The “Relative mRNA level 3hpdh + 3-HP” value ([2]; Alcanivorax hongdengensis, + 3-HP) was 0.27, the “Relative mRNA level 3hpdh + 3-HP” value ([2]; Alicychphilus denitrificans, + 3-HP) was 0.30 and the “Relative mRNA level 3hpdh + 3-HP” value ([2]; Alteromonas marina, + 3-HP) was 0.34. The “Relative mRNA level 3hpdh + 3-HP” value ([2]; Azospirillum brasilensse, + 3-HP) was 0.41, the “Relative mRNA level 3hpdh + 3-HP” value ([2]; Bordetella avium, + 3-HP) was 0.45 and the “Relative mRNA level 3hpdh + 3-HP” value ([2]; Bradyrhizobium japonicum, + 3-HP) was 0.52. The “Relative mRNA level 3hpdh + 3-HP” value ([2]; Burkholderia ambifaria, + 3-HP) was 0.31, the “Relative mRNA level 3hpdh + 3-HP” value ([2]; Catenulispora acidiphilia, + 3-HP) was 0.41 and the “Relative mRNA level 3hpdh + 3-HP” value ([2]; Caulobacter sp., + 3-HP) was 0.45. For the same compound, the “Relative mRNA level 3hpdh + 3-HP” value ([2]; Chromobacterium violaceum, + 3-HP) was 0.25, the “Relative mRNA level 3hpdh + 3-HP” value ([2]; Comamonas testosteroni, + 3-HP) was 0.24 and the “Relative mRNA level 3hpdh + 3-HP” value ([2]; Corynebacterium vitaeruminis, + 3-HP) was 0.28. For the same compound, the “Relative mRNA level 3hpdh + 3-HP” value ([2]; Cupriavidus necator, + 3-HP) was 0.21, the “Relative mRNA level 3hpdh + 3-HP” value ([2]; Glaciecola nitratireducens, + 3-HP) was 0.30 and the “Relative mRNA level 3hpdh + 3-HP” value ([2]; Gordonia bronchialis, + 3-HP) was 0.29. For the same compound, the “Relative mRNA level 3hpdh + 3-HP” value ([2]; Hahella chijuensis, + 3-HP) was 0.28, the “Relative mRNA level 3hpdh + 3-HP” value ([2]; Halomonas elongata, + 3-HP) was 0.32 and the “Relative mRNA level 3hpdh + 3-HP” value ([2]; Hirschia litorea, + 3-HP) was 0.34. The “Relative mRNA level 3hpdh + 3-HP” value ([2]; Idiomarina sp., + 3-HP) was 0.42, the “Relative mRNA level 3hpdh + 3-HP” value ([2]; Janthinobacterium lividum, + 3-HP) was 0.33 and the “Relative mRNA level 3hpdh + 3-HP” value ([2]; Kitasatospora setae, + 3-HP) was 0.36. The “Relative mRNA level 3hpdh + 3-HP” value ([2]; Kutzneria albida, + 3-HP) was 0.41, the “Relative mRNA level 3hpdh + 3-HP” value ([2]; Methylobacterium sp., + 3-HP) was 0.45 and the “Relative mRNA level 3hpdh + 3-HP” value ([2]; Novosphingobium sp., + 3-HP) was 0.39. The “Relative mRNA level 3hpdh + 3-HP” value ([2]; Oceanimonas smirnovii, + 3-HP) was 0.24, the “Relative mRNA level 3hpdh + 3-HP” value ([2]; Paracoccus sp., + 3-HP) was 0.25 and the “Relative mRNA level 3hpdh + 3-HP” value ([2]; Parvibaculum lavamentivorans, + 3-HP) was 0.28. The “Relative mRNA level 3hpdh + 3-HP” value ([2]; Phenylobacterium kunshanensis, + 3-HP) was 0.33, the “Relative mRNA level 3hpdh + 3-HP” value ([2]; Polynucleobacter necessarius asymbioticus, + 3-HP) was 0.45 and the “Relative mRNA level 3hpdh + 3-HP” value ([2]; Pseudogulbenkiania sp., + 3-HP) was 0.26. For the same compound, the “Relative mRNA level 3hpdh + 3-HP” value ([2]; Pseudomonas denitrificans ATCC13867, + 3-HP) was 0.23, the “Relative mRNA level 3hpdh + 3-HP” value ([2]; Pseudomonas fluorescens, + 3-HP) was 0.27 and the “Relative mRNA level 3hpdh + 3-HP” value ([2]; Pseudomonas knackmussii, + 3-HP) was 0.25. The “Relative mRNA level 3hpdh + 3-HP” value ([2]; Pseudomonas protegens, + 3-HP) was 0.19, the “Relative mRNA level 3hpdh + 3-HP” value ([2]; Psychrobacter phenylpyruvicus, + 3-HP) was 0.37 and the “Relative mRNA level 3hpdh + 3-HP” value ([2]; Rhodomicrobium vannielli, + 3-HP) was 0.41. For the same compound, the “Relative mRNA level 3hpdh + 3-HP” value ([2]; Segniliparus rotundus, + 3-HP) was 0.27, the “Relative mRNA level 3hpdh + 3-HP” value ([2]; Shewanella oneidensis, + 3-HP) was 0.28 and the “Relative mRNA level 3hpdh + 3-HP” value ([2]; Simiduia agarovorans, + 3-HP) was 0.29. For the same compound, the “Relative mRNA level 3hpdh + 3-HP” value ([2]; Sphingobium chlorophenolicum, + 3-HP) was 0.33, the “Relative mRNA level 3hpdh + 3-HP” value ([2]; Sphingomonas wittichii, + 3-HP) was 0.45 and the “Relative mRNA level 3hpdh + 3-HP” value ([2]; Stenotrophomonas maltophilia, + 3-HP) was 0.31. The “Relative mRNA level 3hpdh + 3-HP” value ([2]; Streptomyces nodosus, + 3-HP) was 0.39, the “Relative mRNA level 3hpdh + 3-HP” value ([2]; Verminephrobacter eiseniae, + 3-HP) was 0.43 and the “Relative mRNA level 3hpdh + 3-HP” value ([2]; Vibrio furnissii, + 3-HP) was 0.39. The “Relative mRNA level 3hpdh + 3-HP” value ([2]; Xanthobacter autotrophicus, + 3-HP) was 0.27, the “Relative mRNA level 3hpdh + 3-HP” value ([2]; Xanthomonas campestri, + 3-HP) was 0.25 and the “increase of expression of 3hpdh by 3-HP” value ([2]; in the microorganisms (Table 7), 25 mM 3-HP in nutrient medium) was 6 fold. For the same compound, the “fold increase of 3hibdhIV mRNA expression” value [3, 4] was 146 fold and the “3hibdhIV expression on addition of 3-HP” value [3, 5] was “did not increase the expression”.
